Test systems include CAKI-1 renal; HCC-2998 colon; HOP-62 NSCLC; HT29 colon; OVCAR-3 ovarian; SF-539 CNS; SK-MEL-5 melanoma; SK-OV-3 ovarian; SNB-75 CNS; U251 CNS.
Common to all, as to experiment: NCI anticancer screen, dose series, 48 h

Consider eight compounds from PubChem BioAssay (NCI).

Where “and” joins values, the source holds several entries; their conditions need not be identical. Identical values can stand only once.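 Results reflect a 48-hour exposure of cells in 96-well plates to compound at five concentrations. GI50 is the concentration that inhibits growth by half. TGI is the concentration that stops growth completely.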

In the case of `CCCCCCCC(=O)O[C@H]1[C@H]2[C@@H](CC1(C)C)C(=O)[C@]13O[C@H]1C(=O)[C@]1(CO1)[C@]23C`, the TGI was 5.82 µM and 5.58 µM in the test with CAKI-1 renal; 21.3 µM and 13.2 µM in the test with HCC-2998 colon; 38.9 µM and 40.2 µM in the test with HOP-62 NSCLC; 14.4 µM and 14.9 µM in the test with HT29 colon; 4.55 µM and 6.02 µM with OVCAR-3 ovarian; 12.7 µM and 21.3 µM with SF-539 CNS. In addition, the TGI is 29.9 µM and 10.5 µM with SK-MEL-5 melanoma; 44.6 µM and 61.9 µM in the test with SK-OV-3 ovarian; 29.4 µM and 53.6 µM with SNB-75 CNS; 11.9 µM and 22.8 µM in the test with U251 CNS. Also, the GI50 was 9.4 µM in the test with HCC-2998 colon; 19.5 µM in the test on HOP-62 NSCLC; 2.37 µM in the test on OVCAR-3 ovarian; 7.72 µM in the test on SF-539 CNS; 15.3 µM in the test with SK-MEL-5 melanoma; 20.7 µM with SK-OV-3 ovarian. In addition, the GI50 in the test with SNB-75 CNS is 14.2 µM; with U251 CNS, 5.8 µM.
Turning to `COc1cc(C2CC(c3cc(Cl)c(C)cc3O)=NN2c2ccc(S(N)(=O)=O)cc2)cc(OC)c1OC` (stereo not given), the GI50 with CAKI-1 renal is 2.55 µM; in the test on HCC-2998 colon, 1.84 µM; in the test on HOP-62 NSCLC, 2.1 µM; with HT29 colon it was 1.92 µM; with OVCAR-3 ovarian, 2.19 µM; in the test with SF-539 CNS, 1.77 µM. For the same compound, the GI50 with SK-MEL-5 melanoma is 2.02 µM; in the test with SK-OV-3 ovarian it was 3.71 µM; with SNB-75 CNS, 2.45 µM; in the test on U251 CNS, 2.84 µM. Moreover, the TGI amounted to 16.9 µM with CAKI-1 renal; 3.75 µM with HCC-2998 colon; 4.56 µM in the test on HOP-62 NSCLC; 4.28 µM with HT29 colon; 4.77 µM in the test on OVCAR-3 ovarian; 3.37 µM in the test on SF-539 CNS. In addition, the TGI worked out at 4.18 µM with SK-MEL-5 melanoma, 11.4 µM with SK-OV-3 ovarian, 28.3 µM with SNB-75 CNS and 8.89 µM with U251 CNS.
Regarding `C=C(C)[C@@H]1CC[C@@H]2C(=CC[C@]3(C)C([C@H](C)CC/C=C(/C)C(=O)O)CC[C@@]23C)[C@@]1(C)CCC(=O)O` (stereo not given in full), the TGI in the test with CAKI-1 renal was 68.4 µM; in the test with HCC-2998 colon, 35.1 µM; in the test on HOP-62 NSCLC, above 100 µM; in the test with HT29 colon, 48.4 µM; in the test on OVCAR-3 ovarian it was 44.6 µM; in the test with SF-539 CNS, 89 µM. Moreover, the TGI with SK-MEL-5 melanoma is 41.2 µM; in the test with SK-OV-3 ovarian, above 100 µM; with SNB-75 CNS, above 100 µM; in the test with U251 CNS it was 70 µM.
As to `COc1ccc(C(=O)C(CN(C)C)c2ccccc2)cc1` (stereo not given), the GI50 in the test with CAKI-1 renal is 2.08 µM; in the test with HCC-2998 colon it was 2.28 µM; in the test with HOP-62 NSCLC, 10.9 µM; in the test with HT29 colon, 3.8 µM; with OVCAR-3 ovarian, 1.42 µM; with SF-539 CNS, 5.07 µM. Moreover, the GI50 in the test on SK-MEL-5 melanoma was 4.22 µM; in the test on SK-OV-3 ovarian, 27.7 µM; in the test with SNB-75 CNS it was 12.8 µM; with U251 CNS it was 4.39 µM. Moreover, the TGI in the test with CAKI-1 renal is 7.82 µM; in the test on HCC-2998 colon, 3.94 µM; in the test with HOP-62 NSCLC, 23.6 µM; in the test on HT29 colon, 21.4 µM; with OVCAR-3 ovarian it was 2.89 µM; in the test on SF-539 CNS, 16.6 µM. Besides, the TGI turned out to be 15.4 µM in the test on SK-MEL-5 melanoma, 77.2 µM with SK-OV-3 ovarian, 27.3 µM in the test on SNB-75 CNS and 14.8 µM in the test on U251 CNS.
Take `CCN(CC)CCn1nc2c3c(cccc3c1=O)-c1ccccc1-2`: the GI50 in the test with CAKI-1 renal was 1.39 µM; in the test with HCC-2998 colon, 2 µM; with HOP-62 NSCLC, 2.18 µM; in the test on HT29 colon it was 1.89 µM; with OVCAR-3 ovarian it was 3.78 µM; with SF-539 CNS it was 2.78 µM. In addition, the GI50 was 1.51 µM with SK-MEL-5 melanoma, 2.13 µM in the test with SK-OV-3 ovarian, 3.27 µM with SNB-75 CNS and 2.18 µM in the test with U251 CNS. In addition, the TGI was above 50 µM in the test on CAKI-1 renal; 11 µM in the test on HCC-2998 colon; 15.9 µM with HOP-62 NSCLC; 13.2 µM in the test on HT29 colon; 45.2 µM in the test with OVCAR-3 ovarian; 11.7 µM in the test on SF-539 CNS. Besides, the TGI is 4.08 µM in the test on SK-MEL-5 melanoma, above 50 µM in the test with SK-OV-3 ovarian, 11.1 µM in the test on SNB-75 CNS and 24.7 µM in the test with U251 CNS.
On to `CC(C)C(NCc1c2ccccc2nc2ccccc12)C(=O)O` (stereo not given), for which the TGI in the test on CAKI-1 renal, in the test on HCC-2998 colon, in the test on HOP-62 NSCLC, in the test on HT29 colon, in the test on OVCAR-3 ovarian and with SF-539 CNS was above 100 µM in each case. Moreover, the TGI with SK-MEL-5 melanoma, with SK-OV-3 ovarian, in the test with SNB-75 CNS and in the test with U251 CNS was above 100 µM in each case.
As for `COC(=O)C1=C(C)NC(C)=C(C(=O)OC)C1c1ccccc1[N+](=O)[O-]`, the GI50 with CAKI-1 renal was 38.8 µM; in the test on HCC-2998 colon it was above 100 µM; in the test on HOP-62 NSCLC it was above 100 µM; with HT29 colon it was above 100 µM; with OVCAR-3 ovarian, 93.2 µM; in the test with SF-539 CNS, above 100 µM. Moreover, the values for the GI50 with SK-OV-3 ovarian, in the test on SNB-75 CNS and with U251 CNS were above 100 µM, 27 µM and above 100 µM, respectively. The TGI in the test on CAKI-1 renal, in the test with HCC-2998 colon, with HOP-62 NSCLC, in the test on HT29 colon, with OVCAR-3 ovarian and in the test with SF-539 CNS was above 100 µM throughout. Moreover, the TGI with SK-OV-3 ovarian, with SNB-75 CNS and in the test on U251 CNS was above 100 µM in each case.
In the case of `O=C(c1nc2ccccc2[nH]1)C1C(c2cccc([N+](=O)[O-])c2)C2CC3CCCCC3N2[C@@]12C(=O)Nc1cc(Cl)ccc12` (stereo not given in full), the GI50 with CAKI-1 renal was 1.43 µM; with HCC-2998 colon, 1.88 µM; in the test on HOP-62 NSCLC it was 1.86 µM; in the test on HT29 colon, 1.64 µM; in the test with SF-539 CNS, 1.69 µM; in the test with SK-MEL-5 melanoma, 1.69 µM. Also, the GI50 in the test on SNB-75 CNS was 1.18 µM. Further, the TGI in the test with CAKI-1 renal worked out at 3.94 µM; in the test with HCC-2998 colon, 3.83 µM; with HOP-62 NSCLC, 4.62 µM; in the test with HT29 colon, 4.35 µM; in the test with SF-539 CNS, 3.19 µM; in the test on SK-MEL-5 melanoma it was 3.1 µM. Also, in the test with SNB-75 CNS, the TGI came out at 3.63 µM.
